Data taken from patent US20200308144A1, “Multimeric piperidine derivatives” (Bellicum Pharmaceuticals, Inc., priority 2017, published 2020).
Where two headings read alike, the source gives them in different places.

Experiments:
[1] = Solubility in water and buffers; format: physicochemical; conditions: buffer system None (unbuffered water)
Excerpt: By “soluble” or “solubility” is meant the property of a compound to dissolve in water, buffer, or other liquid, which may be measured in terms of mg·mL^−1. […] Examples of pharmaceutically acceptable buffers include those provided in Remington: The Science and Practice of Pharmacy, 22 ed., 2013, Pharmaceutical Press, London (Allen, L. V., Jr., ed.). […] Methods for evaluating the solubility of a compound include, for example, a 96-well plate-based assay in which aqueous suspensions of the compound are vacuum-filtered and the concentration of compound is measured by UV spectrophotometry (Roy et al (2001) Drug Dev Ind Pharm 27(1):107-109).

[2] = Stability of salt forms under accelerated conditions of heat and humidity; format: physicochemical
Method: The stability of different salt forms of Compound A was assayed under accelerated conditions of heat and humidity for 7 and for 14 days. All salts were […] up to 40° C. and 75% relative humidity (RH), but appeared to degrade under severe temperature and humidity conditions of 80° C. with or without 80% relative humidity. (Table 3)

cells [3] = conditions: cited from earlier work
[4] = cited from earlier work
cells [5] = test: AP1903 amount needed in vitro for effective signaling of cells; format: cell-based; conditions: converted with 1600 Da
Method: The fixed dose of AP1903 for injection used, for example, may be 0.4 mg/kg intravenously infused over 2 hours. The amount of AP1903 needed in vitro for effective signaling of cells is 10-100 nM (1600 Da MVV). This equates to 16-160 μg/L or ˜[…] (1.6-160 μg/kg). Doses up to 1 mg/kg were well-tolerated in the Phase 1 study of AP1903 discussed above. Therefore, 0.4 mg/kg may be a safe and effective dose of AP1903 for this Phase I study in combination with the therapeutic cells.

[6] = cited from earlier work; remark: listed apart in the source

Structure (SMILES) | Inherent pH in parenthesis [1] | Assay (%) ([2]; 25° C./60% RH, 7 D) | Assay (%) ([2]; 25° C./60% RH, 14 D) | Assay (%) ([2]; 40° C./75% RH, 7 D) | Assay (%) ([2]; 40° C./75% RH, 14 D) | Assay (%) ([2]; 80° C., 7 D) | Assay (%) ([2]; 80° C., 14 D) | Assay (%) ([2]; 80° C./80% RH, 7 D) | Assay (%) ([2]; 80° C./80% RH, 14 D) | amount needed in vitro for effective signaling of cells (cells [3]) | solubility in water [4] | amount needed in vitro for effective signaling of cells, converted (cells [5]) | plasma levels versus dose ([6]; 0.01-1.0 mg/kg IV over 2 hours) | plasma level as % of maximal concentration ([6]; 0.5 hours post-dose) | plasma level as % of maximal concentration ([6]; 2 hours post-dose) | plasma level as % of maximal concentration ([6]; 10 hours post-dose) | well-tolerated doses ([6]; Phase 1 study) | mean Cmax ([6]; healthy volunteers, single doses 0.01-1.0 mg/kg infused IV over 2 hours)
CC[C@H](C(=O)N1CCCC[C@H]1C(=O)O[C@H](CCc1ccc(OC)c(OC)c1)c1cccc(OCCN(C)CCN(C)CCOc2cccc([C@@H](CCc3ccc(OC)c(OC)c3)OC(=O)[C@@H]3CCCCN3C(=O)[C@@H](CC)c3cc(OC)c(OC)c(OC)c3)c2)c1)c1cc(OC)c(OC)c(OC)c1.O=S(=O)(O)c1ccccc1 | 4.3 | 92.2% | 91.7% | 92.2% | 92.2% | 91.5% | 90.6% | 91.2% | 90. % | – | – | – | – | – | – | – | – | –
CC[C@H](C(=O)N1CCCC[C@H]1C(=O)O[C@H](CCc1ccc(OC)c(OC)c1)c1cccc(OCCN(C)CCN(C)CCOc2cccc([C@@H](CCc3ccc(OC)c(OC)c3)OC(=O)[C@@H]3CCCCN3C(=O)[C@@H](CC)c3cc(OC)c(OC)c(OC)c3)c2)c1)c1cc(OC)c(OC)c(OC)c1.O=P(O)(O)O [Compound A.1] | 3.9 | 96.2% | 95.9% | 95.6% | 95.9% | 94.9% | 93.3% | 85.2% | 77.7% | – | – | – | – | – | – | – | – | –
CC[C@H](C(=O)N1CCCC[C@H]1C(=O)O[C@H](CCc1ccc(OC)c(OC)c1)c1cccc(OCCN(C)CCN(C)CCOc2cccc([C@@H](CCc3ccc(OC)c(OC)c3)OC(=O)[C@@H]3CCCCN3C(=O)[C@@H](CC)c3cc(OC)c(OC)c(OC)c3)c2)c1)c1cc(OC)c(OC)c(OC)c1.Cl [Compound A.2] | 2.9 | 97.3% | 96.7% | 97.2% | 96.9% | 96.3% | 94.8% | 95.6% | 94.4% | – | – | – | – | – | – | – | – | –
CC[C@H](C(=O)N1CCCC[C@H]1C(=O)O[C@H](CCc1ccc(OC)c(OC)c1)c1cccc(OCCN(C)CCN(C)CCOc2cccc([C@@H](CCc3ccc(OC)c(OC)c3)OC(=O)[C@@H]3CCCCN3C(=O)[C@@H](CC)c3cc(OC)c(OC)c(OC)c3)c2)c1)c1cc(OC)c(OC)c(OC)c1.O=C(O)/C=C/C(=O)O [Fumarate] | 3.4 | 97.5% | 97.1% | 97.2% | 96.8% | 96.6% | 95.8% | 87.5% | 81.2% | – | – | – | – | – | – | – | – | –
CC[C@H](C(=O)N1CCCC[C@H]1C(=O)O[C@H](CCc1ccc(OC)c(OC)c1)c1cccc(OCCN(C)CCN(C)CCOc2cccc([C@@H](CCc3ccc(OC)c(OC)c3)OC(=O)[C@@H]3CCCCN3C(=O)[C@@H](CC)c3cc(OC)c(OC)c(OC)c3)c2)c1)c1cc(OC)c(OC)c(OC)c1.O=S(=O)(O)O [Sulphate] | 3.06 | 96.2% | 95.0% | 95.9% | 95.6% | 95.3% | 94.6% | 88.2% | 85.4% | – | – | – | – | – | – | – | – | –
CC[C@H](C(=O)N1CCCC[C@H]1C(=O)O[C@H](CCc1ccc(OC)c(OC)c1)c1cccc(OCC(=O)NCCNC(=O)COc2cccc([C@@H](CCc3ccc(OC)c(OC)c3)OC(=O)[C@@H]3CCCCN3C(=O)[C@@H](CC)c3cc(OC)c(OC)c(OC)c3)c2)c1)c1cc(OC)c(OC)c(OC)c1 [rimiducid] | – | – | – | – | – | – | – | – | – | 10 to 100 nM | approximately 700 pM | 16 to 160 µg/L | directly proportional to dose | approximately 18% | ~7% | ~1% | up to 1 mg/kg | 10 to 1275 ng/mL
